# Assay: Biodistribution in DU-145 tumor-bearing mice
# Assay type: in vivo
# Settings: i.v., mean (SD)
# Protocol: (+)-^131I]pIV was prepared using a method described previously. To produce tumors, approximately 5 × 10^6 of the prepared DU-145 cells was injected subcutaneously into the right dorsum of 4-week-old male BALB/c nude mice (15 to 19 g, Japan SLC, Inc.). Biodistribution experiments were performed at approximately 14- to 21-day post-inoculation, i.e., when tumors reached a palpable size. Groups of four mice were intravenously administered with 100 μL of a mixed solution of (+)-^125I]IV-OH (37 kBq) and (+)-^131I]pIV (37 kBq). At 10-min, 1-, 3-, and 24-h post-injections, the mice were killed. Tissues of interest were removed and weighed, and radioactivity counts were determined with an auto well gamma counter and corrected for background radiation. A window from 16 to 71 keV was used for measuring ^125I and one from 300 to 433 keV for ^131I. The crossover of ^125I activity into the ^131I channel was negligible. Correlation factors to eliminate any crossover of ^131I activity into ^125I were determined by measuring the ^131I standard in both windows.
smiles,measurement,setting,value
"OC1CCCCC1N1CCC(c2ccc([131I])cc2)CC1 (single isomer, unassigned; (+)) [(+)-[^131I]pIV, reference compound]","Biodistribution of radioactivity, Blood",10 min post-injection,0.45 (0.03) percent injected dose per gram tissue
same,"Biodistribution of radioactivity, Blood",1 h post-injection,0.28 (0.02) percent injected dose per gram tissue
same,"Biodistribution of radioactivity, Blood",3 h post-injection,0.17 (0.01) percent injected dose per gram tissue
same,"Biodistribution of radioactivity, Brain",10 min post-injection,6.02 (0.74) percent injected dose per gram tissue
same,"Biodistribution of radioactivity, Brain",1 h post-injection,6.47 (0.73) percent injected dose per gram tissue
same,"Biodistribution of radioactivity, Brain",3 h post-injection,4.12 (0.30) percent injected dose per gram tissue
same,"Biodistribution of radioactivity, Brain",24 h post-injection,2.22 (0.10) percent injected dose per gram tissue
same,"Biodistribution of radioactivity, Heart",10 min post-injection,8.66 (0.81) percent injected dose per gram tissue
same,"Biodistribution of radioactivity, Heart",1 h post-injection,5.55 (0.70) percent injected dose per gram tissue
same,"Biodistribution of radioactivity, Heart",3 h post-injection,2.11 (0.37) percent injected dose per gram tissue
same,"Biodistribution of radioactivity, Heart",24 h post-injection,0.96 (0.07) percent injected dose per gram tissue
same,"Biodistribution of radioactivity, Intestine",10 min post-injection,4.31 (0.78) percent injected dose per gram tissue
same,"Biodistribution of radioactivity, Intestine",1 h post-injection,5.14 (0.12) percent injected dose per gram tissue
same,"Biodistribution of radioactivity, Intestine",3 h post-injection,3.20 (0.13) percent injected dose per gram tissue
same,"Biodistribution of radioactivity, Intestine",24 h post-injection,2.59 (0.24) percent injected dose per gram tissue
same,"Biodistribution of radioactivity, Kidney",10 min post-injection,18.47 (1.59) percent injected dose per gram tissue
same,"Biodistribution of radioactivity, Kidney",1 h post-injection,11.72 (1.90) percent injected dose per gram tissue
same,"Biodistribution of radioactivity, Kidney",3 h post-injection,7.37 (0.89) percent injected dose per gram tissue
same,"Biodistribution of radioactivity, Kidney",24 h post-injection,6.15 (0.30) percent injected dose per gram tissue
same,"Biodistribution of radioactivity, Liver",10 min post-injection,9.83 (0.39) percent injected dose per gram tissue
same,"Biodistribution of radioactivity, Liver",1 h post-injection,13.31 (1.25) percent injected dose per gram tissue
same,"Biodistribution of radioactivity, Liver",3 h post-injection,13.05 (0.46) percent injected dose per gram tissue
same,"Biodistribution of radioactivity, Liver",24 h post-injection,10.28 (0.59) percent injected dose per gram tissue
same,"Biodistribution of radioactivity, Lung",10 min post-injection,26.10 (3.39) percent injected dose per gram tissue
same,"Biodistribution of radioactivity, Lung",1 h post-injection,13.13 (3.28) percent injected dose per gram tissue
same,"Biodistribution of radioactivity, Lung",3 h post-injection,6.59 (0.56) percent injected dose per gram tissue
same,"Biodistribution of radioactivity, Lung",24 h post-injection,3.01 (0.46) percent injected dose per gram tissue
same,"Biodistribution of radioactivity, Muscle",10 min post-injection,2.03 (0.53) percent injected dose per gram tissue
same,"Biodistribution of radioactivity, Muscle",1 h post-injection,1.62 (0.22) percent injected dose per gram tissue
same,"Biodistribution of radioactivity, Muscle",3 h post-injection,0.72 (0.29) percent injected dose per gram tissue
same,"Biodistribution of radioactivity, Muscle",24 h post-injection,0.42 (0.03) percent injected dose per gram tissue
same,"Biodistribution of radioactivity, Pancreas",10 min post-injection,16.58 (1.82) percent injected dose per gram tissue
same,"Biodistribution of radioactivity, Pancreas",1 h post-injection,21.94 (2.50) percent injected dose per gram tissue
same,"Biodistribution of radioactivity, Pancreas",3 h post-injection,27.35 (0.24) percent injected dose per gram tissue
same,"Biodistribution of radioactivity, Pancreas",24 h post-injection,27.36 (0.70) percent injected dose per gram tissue
same,"Biodistribution of radioactivity, Spleen",10 min post-injection,8.12 (1.09) percent injected dose per gram tissue
same,"Biodistribution of radioactivity, Spleen",1 h post-injection,8.99 (1.00) percent injected dose per gram tissue
same,"Biodistribution of radioactivity, Spleen",3 h post-injection,4.04 (0.30) percent injected dose per gram tissue
same,"Biodistribution of radioactivity, Spleen",24 h post-injection,2.52 (0.23) percent injected dose per gram tissue
same,"Biodistribution of radioactivity, Stomach",10 min post-injection,1.07 (0.32) percent injected dose
same,"Biodistribution of radioactivity, Stomach",1 h post-injection,0.73 (0.26) percent injected dose
same,"Biodistribution of radioactivity, Stomach",3 h post-injection,0.62 (0.19) percent injected dose
same,"Biodistribution of radioactivity, Stomach",24 h post-injection,0.49 (0.06) percent injected dose
same,"Biodistribution of radioactivity, Tumor",10 min post-injection,7.20 (0.40) percent injected dose per gram tissue
same,"Biodistribution of radioactivity, Tumor",1 h post-injection,5.79 (0.37) percent injected dose per gram tissue
same,"Biodistribution of radioactivity, Tumor",3 h post-injection,6.46 (3.42) percent injected dose per gram tissue
same,"Biodistribution of radioactivity, Tumor",24 h post-injection,6.81 (2.60) percent injected dose per gram tissue
